Experimental data: article PMC12490008 (Environmental Science & Technology, 2025)
*1 amine or outer side, *2 acyl side, *3 side chain or, on linkers, in order; H or OH if unused. Where a SMILES comes first, the peptide text is derived from it. Bridges are numbered along the chain shown (N, C = ends). [ ]: non-standard residue; d: D form. Adda = CO[C@@H](Cc1ccccc1)[C@@H](C)/C=C(C)/C=C/[C@H](N[*:1])[C@H](C)C(=O)[*:2]; dAsp(3S-Me) = C[C@H](C(=O)[*:3])[C@@H](N[*:1])C(=O)[*:2]; d(γGlu) = O=C(O)[C@@H](CCC(=O)[*:2])N[*:1]; hTyr = N[C@@H](CCc1ccc(O)cc1)C(=O)O; Abu = CC[C@H](N)C(=O)O; NMeDha = C=C(NC)C(=O)O

Experiments:
[1] = tested on: River Chriesbach biofilm suspension (100%)
[2] = tested on: River Chriesbach river water
[3] = tested on: River Chriesbach biofilm suspension (100%, 10%, 1%)
[4] = tested on: River Chriesbach biofilm suspension
[5] = tested on: River Chriesbach biofilm suspensions
[6] = tested on: River Mönschaltorfer Aa biofilm suspension
[7] = tested on: River Glatt biofilm suspension
[8] = tested on: lake Greifensee water and three rivers

Row | SMILES | 1.3d removal, 2% metabolite [1] [%] | 1.3d removal, 10% metabolite [1] [%] | 1.3d removal, 100% metabolite [1] [%] | Half-lives (h), 100% metabolite [1] | 1d removal, River water [2] [%] | Half-lives (h), River water [2] | 1d removal, 1% biofilm [3] [%] | 1d removal, 10% biofilm [3] [%] | 1d removal, 100% biofilm [3] [%] | Half-lives (h), 1% biofilm [3] | Half-lives (h), 10% biofilm [3] | Half-lives (h), 100% biofilm [3] | removal within 3 days [4] [%] | biodegradability in biofilm suspensions (in words) [5] | other results
1 | C=C1C(=O)N[C@H](C)C(=O)N[C@@H](CCc2ccc(O)cc2)C(=O)N[C@@H](C(=O)O)[C@H](C)C(=O)N[C@@H](CCCNC(=N)N)C(=O)N[C@@H](/C=C/C(C)=C/[C@H](C)[C@H](Cc2ccccc2)OC)[C@H](C)C(=O)N[C@@H](C(=O)O)CCC(=O)N1C [MC-HtyR] (R[Adda][d(γGlu)][NMeDha][dA][hTyr][dAsp(3S-Me)]-OH; lactam N-7) | 33 | 14 | 9 | 70.4 h | -36 | n.d.(decay) | -13 | 19 | 17 | n.d.(decay) | n.d.(decay) | 51.8 h | 31 | biodegradable | –
2 | C=C1C(=O)N[C@H](C)C(=O)N[C@@H](CC(C)C)C(=O)N[C@@H](C(=O)O)[C@H](C)C(=O)N[C@@H](CC)C(=O)N[C@@H](/C=C/C(C)=C/[C@H](C)[C@H](Cc2ccccc2)OC)[C@H](C)C(=O)N[C@@H](C(=O)O)CCC(=O)N1C [MC-LAba] ([Abu][Adda][d(γGlu)][NMeDha][dA]L[dAsp(3S-Me)]-OH; lactam N-7) | -7 | -2 | 8 | n.d. (decay) | -11 | n.d.(decay) | -6 | 13 | -8 | n.d.(decay) | n.d.(decay) | n.d.(decay) | < 13 | remained rather stable | –
3 | O=C(O)c1ccccc1 [benzoic acid, reference compound] | – | – | – | – | – | – | – | – | – | – | – | – | – | – | removal of benzoic acid within 4 h [1]: 94-100%; removal of benzoic acid after 8 h [6]: 41%; removal of benzoic acid after 24 h [6]: 84%; removal of benzoic acid after 8 h [7]: 3%; removal of benzoic acid after 24 h [7]: 75%; removal of benzoic acid after 1 day, 1% density [3]: 62%; removal of benzoic acid after 1 day, 10% density [3]: 77%; removal of benzoic acid after 1 day, 100% density [3]: 97%; removal of benzoic acid after 8 h [4]: 72%; removal of benzoic acid after 24 h [4]: 100%; biotransformation during incubation in surface waters [8]: degraded within hours
